Laboratory results as given in US11672821B2, “Methods for treating respiratory conditions using ionic aqueous polysaccharide compositions” (Gerolymatos International S.A., priority 2013, dated 2023).

Columns and labels:
[1] = tested on: IL-8; experiment: HCPt-induced IL-8 secretion in three-dimensional nasal epithelial cultures from an allergic donor, ELISA; type: cell-based, human; settings: 30 μl of 20 mM HCPt, 16 hours exposure; peak of IL-8 secretion at Day 4
[2] = tested on: human nasal epithelial cells; experiment: Cilia beating frequency (CBF) in three-dimensional nasal epithelial cultures from an allergic donor; type: cell-based; settings: Day 4, versus control

[Cl][Pt-2]([Cl])([Cl])([Cl])([Cl])[Cl].[NH4+].[NH4+] [HCPt, Ammonium hexachloroplatinate]
IL-8 secretion with HCPt alone [1]: efficiently induced inflammation
cilia beating frequency (CBF) with HCPt alone [2]: reduced CBF versus control
